Measurements from PubChem BioAssay (NCI).
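Briefly, cells in 96-well plates were exposed to five compound concentrations for 48 h, and endpoints were estimated by linear interpolation. TGI: concentration producing complete growth inhibition.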

How the values were obtained:
Assay in all cases: NCI tumour cell line growth inhibition, 48 h
A498 renal = tested on: A498 renal
A549 NSCLC = tested on: A549 NSCLC
CAKI-1 renal = tested on: CAKI-1 renal
CCRF-CEM leukemia = tested on: CCRF-CEM leukemia
COLO 205 colon = tested on: COLO 205 colon
DLD-1 colon = tested on: DLD-1 colon
DMS 114 small cell lung = tested on: DMS 114 small cell lung
DMS 273 small cell lung = tested on: DMS 273 small cell lung
EKVX NSCLC = tested on: EKVX NSCLC
HCC-2998 colon = tested on: HCC-2998 colon
HCT-116 colon = tested on: HCT-116 colon
HCT-15 colon = tested on: HCT-15 colon
HL-60(TB) leukemia = tested on: HL-60(TB) leukemia
HOP-18 NSCLC = tested on: HOP-18 NSCLC
HOP-62 NSCLC = tested on: HOP-62 NSCLC
HOP-92 NSCLC = tested on: HOP-92 NSCLC
HT29 colon = tested on: HT29 colon
IGROV1 ovarian = tested on: IGROV1 ovarian
K-562 leukemia = tested on: K-562 leukemia
KM12 colon = tested on: KM12 colon
KM20L2 colon = tested on: KM20L2 colon
LOX IMVI melanoma = tested on: LOX IMVI melanoma
M19-MEL melanoma = tested on: M19-MEL melanoma
MALME-3M melanoma = tested on: MALME-3M melanoma
MCF7 breast = tested on: MCF7 breast
MOLT-4 leukemia = tested on: MOLT-4 leukemia
NCI-H226 lung = tested on: NCI-H226 lung
NCI-H23 lung = tested on: NCI-H23 lung
NCI-H460 lung = tested on: NCI-H460 lung
NCI-H522 lung = tested on: NCI-H522 lung
NCI/ADR-RES ovarian = tested on: NCI/ADR-RES ovarian
OVCAR-3 ovarian = tested on: OVCAR-3 ovarian
OVCAR-4 ovarian = tested on: OVCAR-4 ovarian
OVCAR-5 ovarian = tested on: OVCAR-5 ovarian
OVCAR-8 ovarian = tested on: OVCAR-8 ovarian
P388 leukemia = tested on: P388 leukemia
P388/ADR leukemia = tested on: P388/ADR leukemia
RPMI-8226 leukemia = tested on: RPMI-8226 leukemia
RXF 393 renal = tested on: RXF 393 renal
SF-268 CNS = tested on: SF-268 CNS
SF-295 CNS = tested on: SF-295 CNS
SF-539 CNS = tested on: SF-539 CNS
SK-MEL-2 melanoma = tested on: SK-MEL-2 melanoma
SK-MEL-28 melanoma = tested on: SK-MEL-28 melanoma
SK-MEL-5 melanoma = tested on: SK-MEL-5 melanoma
SK-OV-3 ovarian = tested on: SK-OV-3 ovarian
SN12C renal = tested on: SN12C renal
SN12K1 renal = tested on: SN12K1 renal
SNB-19 CNS = tested on: SNB-19 CNS
SNB-75 CNS = tested on: SNB-75 CNS
SNB-78 CNS = tested on: SNB-78 CNS
SW-620 colon = tested on: SW-620 colon
U251 CNS = tested on: U251 CNS
UACC-257 melanoma = tested on: UACC-257 melanoma
UACC-62 melanoma = tested on: UACC-62 melanoma
UO-31 renal = tested on: UO-31 renal

C=CC[N+](CCO)(CCO)CCCCCCCCCCCCCCCCCC
TGI (A498 renal): 42.5 µM
TGI (A549 NSCLC): 35 µM
TGI (CAKI-1 renal): 17.9 µM
TGI (CCRF-CEM leukemia): 3.76 µM
TGI (COLO 205 colon): 11 µM
TGI (DLD-1 colon): 30.2 µM
TGI (DMS 114 small cell lung): 18.4 µM
TGI (DMS 273 small cell lung): 5.83 µM
TGI (EKVX NSCLC): 47.7 µM
TGI (HCC-2998 colon): 10.6 µM
TGI (HCT-116 colon): 14.7 µM
TGI (HCT-15 colon): 41.4 µM
TGI (HL-60(TB) leukemia): 2.51 µM
TGI (HOP-18 NSCLC): 21.3 µM
TGI (HOP-62 NSCLC): 27.3 µM
TGI (HOP-92 NSCLC): 3.91 µM
TGI (HT29 colon): 12 µM
TGI (IGROV1 ovarian): 3.78 µM
TGI (K-562 leukemia): 18.2 µM
TGI (KM12 colon): 3.58 µM
TGI (KM20L2 colon): 17.1 µM
TGI (LOX IMVI melanoma): 12.6 µM
TGI (M19-MEL melanoma): 11.9 µM
TGI (MALME-3M melanoma): 31.1 µM
TGI (MCF7 breast): > 44.8 µM
TGI (MOLT-4 leukemia): 3.85 µM
TGI (NCI-H226 lung): 28.7 µM
TGI (NCI-H23 lung): 44.9 µM
TGI (NCI-H460 lung): 19.2 µM
TGI (NCI-H522 lung): 13.5 µM
TGI (NCI/ADR-RES ovarian): 55.8 µM
TGI (OVCAR-3 ovarian): 27.1 µM
TGI (OVCAR-4 ovarian): 16.4 µM
TGI (OVCAR-5 ovarian): 31.5 µM
TGI (OVCAR-8 ovarian): 59.5 µM
TGI (P388 leukemia): 1.21 µM
TGI (P388/ADR leukemia): > 49 µM
TGI (RPMI-8226 leukemia): 5.45 µM
TGI (RXF 393 renal): 5.24 µM
TGI (SF-268 CNS): 13.3 µM
TGI (SF-295 CNS): 21.5 µM
TGI (SF-539 CNS): 13.1 µM
TGI (SK-MEL-2 melanoma): 32.7 µM
TGI (SK-MEL-28 melanoma): 28 µM
TGI (SK-MEL-5 melanoma): 25.6 µM
TGI (SK-OV-3 ovarian): 27.9 µM
TGI (SN12C renal): 24 µM
TGI (SN12K1 renal): 20.5 µM
TGI (SNB-19 CNS): 35.3 µM
TGI (SNB-75 CNS): 7.55 µM
TGI (SNB-78 CNS): 12.6 µM
TGI (SW-620 colon): 22.2 µM
TGI (U251 CNS): 4.48 µM
TGI (UACC-257 melanoma): 17.2 µM
TGI (UACC-62 melanoma): 20.2 µM
TGI (UO-31 renal): 31.4 µM
